Patent US20200270225A1, “Chiral Diacylhydrazine Ligands for Modulating the Expression of Exogenous Genes via an Ecdysone Receptor Complex” (Intrexon Corporation, priority 2007, published 2020)

Tests used:
[1] = Blood serum levels after oral gavage in Labrasol; type: in vivo, C57BL/6N:Crl mice; conditions: 30 and 50 mg/kg/day, 9 and 12 days
Procedure: Compounds in Labrasol were administered to C57BL/6N:Crl (wild-type) mice (Charles River Laboratories) by oral gavage, the intended route of administration in humans. Dosage was set at 3, 10, 30, or 50 mg/kg/day and 2.5 mL/kg/dose (FIG. 16). Doses were administered for 9 days (first 18 females/group) or 12 days (second 18 females/group) (FIG. 16). Blood was withdrawn at 9-day and 12-day time points. Concentrations were quantified by reverse-phase HPLC.
For each concentration, the samples were prepared by adding Labrasol to solid R enantiomer or racemate in a beaker, sonicating to break up visible aggregates, and magnetic stirring until a uniform appearance was attained. The mixtures were transferred to a graduated cylinder and topped off to the requisite volume using a Labrasol rinse of the beaker. The contents of the cylinder were mixed by inversion and stirred magnetically until dosing.
Mouse blood serum levels as a function of time were measured by quantitative HPLC. […] The initial particle size differences between racemate an R enantiomer may account for a portion of the serum level differences. Also, the greater intrinsic solubility of the R enantiomer over the racemate in Labrasol may account for a portion of the serum level differences. […]

[2] = test system: RheoSwitch® Therapeutic System (RTS) gene expression; assay: In vivo induction of RTS SEAP reporter in electroporated mice; design: species or system C57BL6 mice; conditions: intraperitoneal injection 26 nmol/mouse; monitored seventeen days
Text: The wild-type D, E, and F domains from spruce budworm Choristoneura fumiferana EcR (“CfEcR-DEF”; SEQ ID NO: 1) were mutated [V107 (gtt)→1107 (att) and Y127 (tac)→E127 (gag)] and fused to a GAL4 DNA binding domain (“Gal4DBD1-147”; SEQ ID NO: 2). Helices 1 through 8 of the EF domains from Homo sapiens RXRPβ (“HsRXRβ-EF”; nucleotides 1-465 of SEQ ID NO: 4) and helices 9 through 12 of the EF domains of Locusta migratoria Ultraspiracle Protein (“LmUSP-EF”; nucleotides 403-630 of SEQ ID NO: 5) were fused to the transactivation domain from VP16 (“VP16AD”; SEQ ID NO: 6), which regulates a reporter gene human secreted alkaline phosphatase (“SEAP”, SEQ ID NO: 12) that was placed under the control of a 6xGAL4 response element (SEQ ID NO: 13) and a transthyretin promoter (SEQ ID NO: 14). Each element of the gene switch was on a separate plasmid. Receptor expression was under the control of a CMV promoter (SEQ ID NO: 15). Induction was evaluated by the amount of reporter protein expressed in the presence of ligand.
SEAP expression in serum of mice was evaluated after electroporation of the gene switch into mouse quadriceps. Mice were anesthetized with 2 μL/g of a mixture of ketamine (100 mg/mL) and xylazine (20 mg/mL). Animals were then shaved, DNA vectors injected into the muscle in a volume of 2×50 μL polyglutamic acid (12 mg/mL water), electrode conductivity gel applied, and an electrode caliber (1 cm×1 cm; model 384) was placed on hind leg. The muscle was electroporated with 200 V/cm, 8 times, for 20 msec/pulse, at 1 sec time intervals. The transverse electrical field direction was reversed after the animals received half of the pulses. Electroporation was performed with an ECM 830 electroporator from BTX Molecular Delivery Systems.
[…] In other experiments the concentration of ligand was decreased to 26 nmol/50 μL of DMSO/mouse. […]
Mouse serum was obtained by centrifugation of blood acquired by retroorbital bleeding with a small glass capillary tube. SEAP quantification was determined using a Clontech Great Escape chemiluminescence kit and by comparison with the Clontech SEAP standard. […]

[3] = Solubility and appearance of 20 mg/mL preparations in Labrasol; type: physicochemical; conditions: sonicated at 25-28° C.
Procedure: These Labrasol dosing preparations utilized micronized R enantiomer, but non-micronized racemate. To address the possibility that the non-micronized racemate specimen might bias its dissolution rate in Labrasol, an independent experiment was performed. In this experiment, the solubility and appearance of 20 mg/mL preparations of micronized and non-micronized racemate were examined. Micronized racemate (lot REH-28-9-1/PYAP-2-8-2-2M), non-micronized racemate (lot # PYAP-2-8-2-2), and micronized R enantiomer (lot # REH-28-4-2) were each suspended in Labrasol, swirled by hand, and then sonicated in a Branson 2100 table top sonicator at 25-28° C. for 3×5 min intervals and a 1×10 min interval, interspersed with swirling by hand. […] By visual inspection, the quantity of undissolved material in micronized and non-micronized racemate samples was substantially the same. […] Some larger crystal fragments remained in the non-micronized sample. Since both micronized and non-micronized samples of racemate result in similar amounts of undissovled material, it appears that the major difference between R enantiomer and racemate Labrasol preparations is the intrinsic solubility rather than the starting particle size of the solute.

SMILES: CCC[C@@H](N(NC(=O)c1cccc(OC)c1CC)C(=O)c1cc(C)cc(C)c1)C(C)(C)C [Example 1, (R)-3,5-Dimethyl-benzoic Acid N-(1-tert-butyl-butyl)-N′-(2-ethyl-3-methoxy-benzoyl)-hydrazide]
- blood serum levels [1]: significantly higher blood serum levels
- RTS gene reporter (SEAP) expression in mouse serum [2]: induces substantial RTS gene reporter expression
- solubility and appearance in Labrasol [3]: readily dissolved

SMILES: CCCC(N(NC(=O)c1cccc(OC)c1CC)C(=O)c1cc(C)cc(C)c1)C(C)(C)C (racemic) [rac-1, rac-2-ethyl-3-methoxy-benzoic acid N′-(1-tert-butyl-butyl)-N′-(3,5-dimethyl-benzoyl)-hydrazide]
- blood serum levels [1]: substantially lower (<4-5 fold AUC)
- RTS gene reporter (SEAP) expression in mouse serum [2]: induces modest RTS gene reporter expression
- solubility and appearance in Labrasol [3]: remained cloudy with suspended fine particles
